The nature of data set [1]: refractive index (Na D-line) (dimensionless). The note with it: 298.2 K; 101.33 kPa; Liquid; Standard Abbe refractometry.
For data set [2] the following is noted: 298.15 K; 101.33 kPa; Liquid; Vibrating tube method.
Data set [3] in a line: relative permittivity at zero frequency (dimensionless). Particulars: 298.2 K; 101.33 kPa; Liquid; Parallel plate capacitor.

± gives the expanded uncertainty stated by the source.

From the NIST ThermoML archive (doi:10.1016/j.jct.2012.04.011) come the findings set out here.

By refractive index is commonly meant the speed of light in vacuum divided by its phase velocity in the sample. As a reminder, the mass density is the mass of a sample divided by its volume. For the compound `C1CCCCC1` [cyclohexane], in data set [1], the refractive index is 1.4234 ± 0.0007. Further, the mass density in data set [2] came to 773.78 ± 0.24 kg/m3. Also, the “relative permittivity at zero frequency” value in data set [3] worked out at 2.02 ± 0.01.
On the same counts, the results for `CC1CCCCC1` [methylcyclohexane] are 1.4198 ± 0.0007, 764.92 ± 0.24 kg/m3 and 2.01 ± 0.01.
On the same counts, the results for `Cc1ccccc1` [toluene] are 1.4938 ± 0.0007, 862.02 ± 0.24 kg/m3 and 2.38 ± 0.01.
On to `O` [water], for which the refractive index in data set [1] was found to be 1.3325 ± 0.0007.
